Test results from paper PMC4620497 (Scientific Reports, 2015).

What was measured:
CDC2L5 = molecular target: T1, CDC2L5 (Homo sapiens, UniProt Q14004); assay: KINOMEscan panel screen; type: binding; conditions: read-out: Percent Control(%)
T1 construct: purchased DiscoveRx KINOMEscan (Ambit Biosciences)
Protocol: (§1) In vitro KINOMEscan kinase binding assays (Ambit Biosciences) were employed to determine the binding affinity (Kd) of compounds[41][42].
(§2) Supplementary Table S3. Matrix of compound screen for SKLB -677 obtained through service provided by DiscoveRX. The compound was screened at a concentration of 10μM. Results are given in %control.
(§3) KINOMEscan Gene Symbol Entrez Gene Percent Compound
(§4) Symbol Control(%) Concentration (μM) […]

PRP4 = molecular target: T2, PRP4 (Homo sapiens, UniProt Q13523); assay: KINOMEscan panel screen; type: binding; conditions: read-out: Percent Control(%)
T2 construct: purchased DiscoveRx KINOMEscan (Ambit Biosciences)
Protocol: as §1, §2, §3, §4

ERBB4 [1] = molecular target: T3, ERBB4 (Homo sapiens, UniProt Q15303); assay: KINOMEscan panel screen; type: binding; conditions: read-out: Percent Control(%)
T3 construct: purchased DiscoveRx KINOMEscan (Ambit Biosciences)
T3 sequence (Q15303 26-1308): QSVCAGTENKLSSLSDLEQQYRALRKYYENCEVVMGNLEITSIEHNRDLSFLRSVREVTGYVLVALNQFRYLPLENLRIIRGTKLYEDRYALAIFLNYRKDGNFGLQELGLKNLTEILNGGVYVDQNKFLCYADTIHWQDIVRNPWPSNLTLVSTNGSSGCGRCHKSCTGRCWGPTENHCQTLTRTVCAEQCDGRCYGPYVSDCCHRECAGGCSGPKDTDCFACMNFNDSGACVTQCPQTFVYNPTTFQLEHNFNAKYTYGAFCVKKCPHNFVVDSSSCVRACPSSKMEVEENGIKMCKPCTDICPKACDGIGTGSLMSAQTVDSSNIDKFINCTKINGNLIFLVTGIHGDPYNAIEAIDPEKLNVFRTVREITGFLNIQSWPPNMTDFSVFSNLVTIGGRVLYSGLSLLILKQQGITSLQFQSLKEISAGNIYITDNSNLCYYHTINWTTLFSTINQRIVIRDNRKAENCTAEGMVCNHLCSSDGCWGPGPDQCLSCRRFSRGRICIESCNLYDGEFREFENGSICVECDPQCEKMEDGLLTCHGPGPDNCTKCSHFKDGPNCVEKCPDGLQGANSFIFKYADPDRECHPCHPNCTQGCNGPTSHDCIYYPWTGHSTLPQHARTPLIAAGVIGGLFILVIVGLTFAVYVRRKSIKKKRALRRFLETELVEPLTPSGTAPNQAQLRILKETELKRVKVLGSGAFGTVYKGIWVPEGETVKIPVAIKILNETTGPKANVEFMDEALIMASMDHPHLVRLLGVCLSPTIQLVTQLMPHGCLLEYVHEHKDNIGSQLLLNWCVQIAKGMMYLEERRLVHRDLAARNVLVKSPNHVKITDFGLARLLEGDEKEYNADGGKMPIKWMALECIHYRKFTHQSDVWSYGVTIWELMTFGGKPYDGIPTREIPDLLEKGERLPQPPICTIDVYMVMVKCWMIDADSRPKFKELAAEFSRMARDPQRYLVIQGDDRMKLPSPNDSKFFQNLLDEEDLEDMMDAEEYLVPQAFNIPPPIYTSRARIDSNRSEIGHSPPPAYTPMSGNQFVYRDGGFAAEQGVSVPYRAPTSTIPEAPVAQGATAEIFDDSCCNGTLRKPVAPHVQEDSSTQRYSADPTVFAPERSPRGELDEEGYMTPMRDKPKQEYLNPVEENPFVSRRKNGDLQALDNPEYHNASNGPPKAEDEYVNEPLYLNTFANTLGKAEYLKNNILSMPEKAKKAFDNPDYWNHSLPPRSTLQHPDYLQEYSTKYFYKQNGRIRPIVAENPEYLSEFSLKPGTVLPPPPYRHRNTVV

INSR = molecular target: T4, INSR (Homo sapiens, UniProt P06213); assay: KINOMEscan panel screen; type: binding; conditions: read-out: Percent Control(%)
T4 construct: purchased DiscoveRx KINOMEscan (Ambit Biosciences)
T4 sequence (P06213 28-1382): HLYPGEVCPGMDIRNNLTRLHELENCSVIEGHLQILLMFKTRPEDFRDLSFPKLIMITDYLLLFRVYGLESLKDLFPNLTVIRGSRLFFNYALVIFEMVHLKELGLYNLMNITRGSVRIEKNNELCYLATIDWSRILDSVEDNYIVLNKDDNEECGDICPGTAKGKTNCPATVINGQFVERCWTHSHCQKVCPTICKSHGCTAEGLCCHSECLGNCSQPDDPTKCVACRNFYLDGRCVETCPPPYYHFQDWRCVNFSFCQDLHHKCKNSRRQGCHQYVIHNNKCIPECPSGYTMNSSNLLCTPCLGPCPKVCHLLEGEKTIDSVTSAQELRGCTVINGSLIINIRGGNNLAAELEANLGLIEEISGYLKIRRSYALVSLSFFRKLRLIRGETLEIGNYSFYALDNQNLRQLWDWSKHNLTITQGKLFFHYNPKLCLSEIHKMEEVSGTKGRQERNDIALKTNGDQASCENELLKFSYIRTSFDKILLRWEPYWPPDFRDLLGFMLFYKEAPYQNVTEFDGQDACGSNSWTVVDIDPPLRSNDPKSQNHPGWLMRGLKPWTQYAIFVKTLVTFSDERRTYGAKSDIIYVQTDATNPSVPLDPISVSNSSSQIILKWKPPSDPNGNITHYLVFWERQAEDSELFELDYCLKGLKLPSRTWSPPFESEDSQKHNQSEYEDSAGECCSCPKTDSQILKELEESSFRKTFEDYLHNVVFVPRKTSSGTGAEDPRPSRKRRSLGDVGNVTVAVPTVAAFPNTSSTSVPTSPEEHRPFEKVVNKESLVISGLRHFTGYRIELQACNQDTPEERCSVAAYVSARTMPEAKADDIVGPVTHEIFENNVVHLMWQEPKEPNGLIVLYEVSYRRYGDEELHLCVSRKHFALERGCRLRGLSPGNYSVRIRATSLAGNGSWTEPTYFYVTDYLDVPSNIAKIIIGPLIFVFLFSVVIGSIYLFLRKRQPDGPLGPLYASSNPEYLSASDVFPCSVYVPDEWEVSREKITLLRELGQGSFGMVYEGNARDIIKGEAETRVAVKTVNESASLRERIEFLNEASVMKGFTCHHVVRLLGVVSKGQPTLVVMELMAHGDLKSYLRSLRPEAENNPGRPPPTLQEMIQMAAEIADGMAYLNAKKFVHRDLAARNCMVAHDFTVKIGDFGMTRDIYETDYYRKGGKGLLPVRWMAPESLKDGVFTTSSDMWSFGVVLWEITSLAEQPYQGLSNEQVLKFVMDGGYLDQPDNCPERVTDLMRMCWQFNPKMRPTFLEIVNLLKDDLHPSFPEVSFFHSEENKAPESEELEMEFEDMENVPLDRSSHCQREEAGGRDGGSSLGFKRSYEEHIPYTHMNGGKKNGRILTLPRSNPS

PIK3CG = molecular target: T5, PIK3CG (Homo sapiens, UniProt P48736); assay: KINOMEscan panel screen; type: binding; conditions: read-out: Percent Control(%)
T5 construct: purchased DiscoveRx KINOMEscan (Ambit Biosciences)

PKNB(M.tuberculosis) = molecular target: T6, PKNB(M.tuberculosis) (Mycobacterium tuberculosis, UniProt P9WI81); assay: KINOMEscan panel screen; type: binding; conditions: read-out: Percent Control(%)
T6 construct: purchased DiscoveRx KINOMEscan (Ambit Biosciences)

STK33 = molecular target: T7, STK33 (Homo sapiens, UniProt Q9BYT3); assay: KINOMEscan panel screen; type: binding; conditions: read-out: Percent Control(%)
T7 construct: purchased DiscoveRx KINOMEscan (Ambit Biosciences)
T7 sequence (Q9BYT3 whole entry): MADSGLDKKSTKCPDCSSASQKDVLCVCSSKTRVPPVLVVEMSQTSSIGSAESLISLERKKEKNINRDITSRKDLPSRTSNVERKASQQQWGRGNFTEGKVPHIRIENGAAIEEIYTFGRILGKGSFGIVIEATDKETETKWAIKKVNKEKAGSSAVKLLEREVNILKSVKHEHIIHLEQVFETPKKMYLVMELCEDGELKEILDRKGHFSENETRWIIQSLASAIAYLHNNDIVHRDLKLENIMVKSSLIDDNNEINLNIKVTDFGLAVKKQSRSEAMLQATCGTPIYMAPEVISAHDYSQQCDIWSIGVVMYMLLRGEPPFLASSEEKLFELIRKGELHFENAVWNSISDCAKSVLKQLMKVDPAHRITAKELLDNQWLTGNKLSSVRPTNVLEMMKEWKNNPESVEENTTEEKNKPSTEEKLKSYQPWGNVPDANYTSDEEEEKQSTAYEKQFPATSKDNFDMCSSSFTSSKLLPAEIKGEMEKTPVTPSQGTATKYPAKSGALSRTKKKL

TSSK1B = molecular target: T8, TSSK1B (Homo sapiens, UniProt Q9BXA7); assay: KINOMEscan panel screen; type: binding; conditions: read-out: Percent Control(%)
T8 construct: purchased DiscoveRx KINOMEscan (Ambit Biosciences)
T8 sequence (Q9BXA7 whole entry): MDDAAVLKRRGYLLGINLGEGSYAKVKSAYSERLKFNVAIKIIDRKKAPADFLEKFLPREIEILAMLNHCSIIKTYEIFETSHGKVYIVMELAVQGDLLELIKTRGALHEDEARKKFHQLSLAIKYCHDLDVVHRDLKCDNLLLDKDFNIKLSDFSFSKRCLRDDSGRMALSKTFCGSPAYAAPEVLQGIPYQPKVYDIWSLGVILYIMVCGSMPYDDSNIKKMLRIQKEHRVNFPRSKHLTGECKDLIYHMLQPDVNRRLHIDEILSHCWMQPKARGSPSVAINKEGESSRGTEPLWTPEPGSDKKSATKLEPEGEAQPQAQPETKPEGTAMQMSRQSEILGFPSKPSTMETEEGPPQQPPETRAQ

CHEK1 = molecular target: T9, CHEK1 (Homo sapiens, UniProt O14757); assay: KINOMEscan kinase binding assay (Kd); conditions: Table S1
T9 construct: purchased DiscoveRx KINOMEscan (Ambit Biosciences)
T9 sequence (O14757 1-476): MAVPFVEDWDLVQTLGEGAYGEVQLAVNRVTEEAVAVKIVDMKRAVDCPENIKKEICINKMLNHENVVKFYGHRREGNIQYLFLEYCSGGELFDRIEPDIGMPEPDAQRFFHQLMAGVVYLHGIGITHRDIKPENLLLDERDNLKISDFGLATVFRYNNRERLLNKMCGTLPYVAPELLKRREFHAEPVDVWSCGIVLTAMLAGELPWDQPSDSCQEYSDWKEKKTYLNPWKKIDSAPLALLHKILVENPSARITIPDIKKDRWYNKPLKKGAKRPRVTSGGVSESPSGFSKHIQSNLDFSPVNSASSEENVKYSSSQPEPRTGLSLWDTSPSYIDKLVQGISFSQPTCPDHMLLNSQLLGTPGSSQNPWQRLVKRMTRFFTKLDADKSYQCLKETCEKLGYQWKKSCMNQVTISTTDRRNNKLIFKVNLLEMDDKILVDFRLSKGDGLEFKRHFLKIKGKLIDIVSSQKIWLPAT
Text: as §1
(§5) compound 1. The y have very similar spectrum of activity in enz ymatic and cellular
(§6) levels. Both of them have the ability to inhibit Wnt/β -catenin si gnalin g. However, in […]

DLK = molecular target: T10, DLK (Homo sapiens, UniProt Q12852); assay: KINOMEscan kinase binding assay (Kd); conditions: Table S1
T10 sequence (Q12852 1-859): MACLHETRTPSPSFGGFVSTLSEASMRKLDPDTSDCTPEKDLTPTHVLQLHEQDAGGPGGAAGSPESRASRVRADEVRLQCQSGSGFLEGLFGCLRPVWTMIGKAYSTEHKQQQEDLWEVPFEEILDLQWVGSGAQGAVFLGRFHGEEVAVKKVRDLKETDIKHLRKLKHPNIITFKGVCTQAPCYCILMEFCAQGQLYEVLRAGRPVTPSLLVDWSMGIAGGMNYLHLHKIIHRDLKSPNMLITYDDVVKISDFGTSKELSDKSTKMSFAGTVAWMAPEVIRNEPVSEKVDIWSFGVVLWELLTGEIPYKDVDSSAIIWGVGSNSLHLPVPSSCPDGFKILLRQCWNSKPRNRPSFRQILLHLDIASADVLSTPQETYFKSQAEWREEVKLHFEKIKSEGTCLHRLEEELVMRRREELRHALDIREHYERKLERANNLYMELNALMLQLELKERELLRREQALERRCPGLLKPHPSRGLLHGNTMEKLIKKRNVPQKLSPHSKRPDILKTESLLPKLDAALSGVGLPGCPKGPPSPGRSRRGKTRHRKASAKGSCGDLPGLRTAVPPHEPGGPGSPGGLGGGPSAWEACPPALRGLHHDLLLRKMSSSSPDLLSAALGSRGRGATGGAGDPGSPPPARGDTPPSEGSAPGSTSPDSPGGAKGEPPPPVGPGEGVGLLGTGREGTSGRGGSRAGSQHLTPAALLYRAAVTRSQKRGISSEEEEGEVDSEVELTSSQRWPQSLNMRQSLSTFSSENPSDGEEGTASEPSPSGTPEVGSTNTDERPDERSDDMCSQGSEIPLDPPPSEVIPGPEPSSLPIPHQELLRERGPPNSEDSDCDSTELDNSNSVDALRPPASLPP
Text: as §1, §5, §6

DMPK = molecular target: T11, DMPK (Homo sapiens, UniProt Q09013); assay: KINOMEscan kinase binding assay (Kd); conditions: Table S1
T11 construct: purchased DiscoveRx KINOMEscan (Ambit Biosciences)
T11 sequence (Q09013 1-629): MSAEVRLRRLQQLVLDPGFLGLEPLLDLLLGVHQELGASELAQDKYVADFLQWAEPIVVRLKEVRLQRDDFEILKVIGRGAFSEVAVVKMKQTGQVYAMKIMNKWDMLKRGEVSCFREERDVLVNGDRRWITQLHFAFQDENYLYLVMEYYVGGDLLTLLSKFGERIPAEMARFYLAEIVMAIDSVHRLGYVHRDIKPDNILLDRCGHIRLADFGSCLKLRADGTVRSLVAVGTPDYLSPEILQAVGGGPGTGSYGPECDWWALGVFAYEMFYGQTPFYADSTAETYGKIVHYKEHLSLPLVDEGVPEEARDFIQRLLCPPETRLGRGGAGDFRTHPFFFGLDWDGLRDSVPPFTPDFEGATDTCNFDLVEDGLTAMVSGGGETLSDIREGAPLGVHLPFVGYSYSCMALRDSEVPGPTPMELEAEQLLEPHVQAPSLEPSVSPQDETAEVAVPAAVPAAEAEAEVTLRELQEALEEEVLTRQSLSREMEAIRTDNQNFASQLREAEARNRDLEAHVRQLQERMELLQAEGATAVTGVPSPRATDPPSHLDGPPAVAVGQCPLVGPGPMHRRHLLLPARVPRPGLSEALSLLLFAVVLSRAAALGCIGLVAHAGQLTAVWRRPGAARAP
Text: as §1, §5, §6

ERBB4 [2] = molecular target: T3, ERBB4; assay: KINOMEscan kinase binding assay (Kd); conditions: Table S1
Text: as §1, §5, §6

ERK = assay: KINOMEscan kinase binding assay (Kd); conditions: Table S1
Text: as §1, §5, §6

PAK1 = PAK1 (Homo sapiens, UniProt Q13153); assay: KINOMEscan kinase binding assay (Kd); conditions: Table S1
Sequence of PAK1 (Q13153 whole entry): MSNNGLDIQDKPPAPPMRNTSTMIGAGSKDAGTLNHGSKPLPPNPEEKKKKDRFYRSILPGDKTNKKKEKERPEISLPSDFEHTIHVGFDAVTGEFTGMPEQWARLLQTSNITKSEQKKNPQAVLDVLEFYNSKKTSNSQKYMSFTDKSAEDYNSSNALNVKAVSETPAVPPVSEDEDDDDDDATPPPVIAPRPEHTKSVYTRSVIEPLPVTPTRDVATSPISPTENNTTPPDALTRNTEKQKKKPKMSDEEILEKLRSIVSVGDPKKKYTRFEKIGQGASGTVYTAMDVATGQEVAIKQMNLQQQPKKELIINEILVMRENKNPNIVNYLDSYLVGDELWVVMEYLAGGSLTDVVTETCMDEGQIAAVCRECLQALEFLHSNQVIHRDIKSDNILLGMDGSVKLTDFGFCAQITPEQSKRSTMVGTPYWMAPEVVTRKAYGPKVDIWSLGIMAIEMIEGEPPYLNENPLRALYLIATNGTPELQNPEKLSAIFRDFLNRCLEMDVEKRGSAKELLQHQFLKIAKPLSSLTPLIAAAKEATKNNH
Text: as §1, §5, §6

PAK2 = molecular target: T12, PAK2 (Homo sapiens, UniProt Q13177); assay: KINOMEscan kinase binding assay (Kd); conditions: Table S1
T12 construct: purchased DiscoveRx KINOMEscan (Ambit Biosciences)
T12 sequence (Q13177 whole entry): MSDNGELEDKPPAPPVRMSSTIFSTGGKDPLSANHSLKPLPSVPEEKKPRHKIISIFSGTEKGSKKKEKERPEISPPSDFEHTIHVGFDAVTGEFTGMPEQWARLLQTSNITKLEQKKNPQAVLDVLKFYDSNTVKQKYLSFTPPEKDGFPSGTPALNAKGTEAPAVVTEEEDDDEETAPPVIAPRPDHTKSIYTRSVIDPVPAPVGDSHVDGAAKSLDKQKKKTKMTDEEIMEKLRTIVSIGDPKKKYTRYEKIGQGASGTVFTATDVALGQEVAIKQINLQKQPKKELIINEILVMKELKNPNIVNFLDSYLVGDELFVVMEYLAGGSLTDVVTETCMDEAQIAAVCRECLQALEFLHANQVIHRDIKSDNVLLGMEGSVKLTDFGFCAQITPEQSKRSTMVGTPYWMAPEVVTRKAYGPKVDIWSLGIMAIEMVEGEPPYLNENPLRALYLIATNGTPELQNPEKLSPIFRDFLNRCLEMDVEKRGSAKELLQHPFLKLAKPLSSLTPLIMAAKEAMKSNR
Text: as §1, §5, §6

CC(C)(C)c1cc(NC(=O)Nc2ccc(Oc3ncnc4[nH]ncc34)c(F)c2)no1 [SKLB-677, 1-(4-(1H-pyrazolo[3,4-d]pyrimidin-4-yloxy)-3-fluorophenyl)-3-(5-tert-butylisoxazol-3-yl)urea]
remaining binding at 10 µM (CDC2L5): 0.6%
remaining binding at 10 µM (PRP4): 73%
remaining binding at 10 µM (ERBB4 [1]): 81%
remaining binding at 10 µM (INSR): 87%
remaining binding at 10 µM (PIK3CG): 100%
remaining binding at 10 µM (PKNB(M.tuberculosis)): 100%
remaining binding at 10 µM (STK33): 0.05%
remaining binding at 10 µM (TSSK1B): 100%
Kd (CHEK1): > 10 µM
Kd (DLK): > 10 µM
Kd (DMPK): > 10 µM
Kd (ERBB4 [2]): > 10 µM
Kd (ERK): > 10 µM
Kd (PAK1): > 10 µM
Kd (PAK2): > 10 µM
